What was measured:
HIS-TGFβR1 T204D = biological target: T1, HIS-TGFβR1 T204D (Homo sapiens, UniProt P36897, T204D); test: HTRF probe-displacement assay, HIS-TGFβR1 T204D; assay type: binding; conditions: read-out: TGFβR1 (μM) IC50
T1 sequence (P36897 34-503 T204D): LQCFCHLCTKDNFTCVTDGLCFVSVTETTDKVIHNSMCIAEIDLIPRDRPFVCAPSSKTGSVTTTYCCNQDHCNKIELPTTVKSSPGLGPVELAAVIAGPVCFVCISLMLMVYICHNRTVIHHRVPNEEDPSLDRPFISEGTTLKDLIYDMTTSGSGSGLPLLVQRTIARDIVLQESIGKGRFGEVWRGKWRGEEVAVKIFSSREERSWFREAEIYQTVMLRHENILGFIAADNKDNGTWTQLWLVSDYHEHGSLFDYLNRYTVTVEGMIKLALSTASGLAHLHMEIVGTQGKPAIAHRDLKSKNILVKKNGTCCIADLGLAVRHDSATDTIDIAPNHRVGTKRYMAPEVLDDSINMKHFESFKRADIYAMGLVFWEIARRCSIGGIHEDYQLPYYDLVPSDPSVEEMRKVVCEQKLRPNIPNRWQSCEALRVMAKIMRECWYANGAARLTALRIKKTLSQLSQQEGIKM

HIS-TGFβR2 WT = HIS-TGFβR2 WT (Homo sapiens, UniProt P37173); test: HTRF probe-displacement assay, HIS-TGFβR2 WT; assay type: binding
Chain of HIS-TGFβR2 WT (P37173 23-567): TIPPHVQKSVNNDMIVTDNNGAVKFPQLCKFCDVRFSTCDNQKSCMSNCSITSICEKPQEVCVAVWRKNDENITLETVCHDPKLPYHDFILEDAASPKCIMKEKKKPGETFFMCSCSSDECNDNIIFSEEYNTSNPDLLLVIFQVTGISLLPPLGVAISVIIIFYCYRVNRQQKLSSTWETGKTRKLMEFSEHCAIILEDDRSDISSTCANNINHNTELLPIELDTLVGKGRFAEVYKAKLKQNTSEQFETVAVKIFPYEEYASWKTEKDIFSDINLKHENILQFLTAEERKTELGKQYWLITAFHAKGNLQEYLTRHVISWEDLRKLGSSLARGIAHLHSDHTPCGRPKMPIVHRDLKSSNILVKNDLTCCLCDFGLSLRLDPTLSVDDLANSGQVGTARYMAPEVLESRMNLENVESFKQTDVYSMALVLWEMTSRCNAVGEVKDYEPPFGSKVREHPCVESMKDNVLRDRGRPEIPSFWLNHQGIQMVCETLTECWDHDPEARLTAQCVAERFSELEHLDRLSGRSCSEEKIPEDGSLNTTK

Structure (SMILES) | IC50 (HIS-TGFβR1 T204D) [µM] | IC50 (HIS-TGFβR2 WT) [µM]
COc1ccc(-c2c(-c3ccnc(NC(C)=O)c3)[nH]c3c(Cl)ccnc23)nc1 [Example 62, N-{4-[7-Chloro-3-(5-methoxypyridin-2-yl)-1H-pyrrolo[3,2-b]pyridin-2-yl]pyridin-2-yl}acetamide] | 0.009 | > 15
COc1cnc(-c2c(-c3ccnc(NC(C)=O)c3)[nH]c3cc(Cl)cnc23)s1 [Example 239, N-(4-(6-Chloro-3-(5-methoxythiazol-2-yl)-1H-pyrrolo[3,2-b]pyridin-2-yl)pyridin-2-yl)acetamide] | 0.0746 | 3.28
COc1ccc(-c2c(-c3ccnc(NC(C)=O)c3)[nH]c3cccnc23)nc1Cl [Example 192, N-(4-(3-(6-Chloro-5-methoxypyridin-2-yl)-1H-pyrrolo[3,2-b]pyridin-2-yl)pyridin-2-yl)acetamide] | 0.11 | > 15
COc1cccc(-c2c(-c3ccnc(NC(C)=O)c3)[nH]c3cc(Cl)cnc23)n1 [Example 65, N-{4-[6-Chloro-3-(6-methoxypyridin-2-yl)-1H-pyrrolo[3,2-b]pyridin-2-yl]pyridin-2-yl}acetamide] | 0.01 | > 15
COc1cccc(-c2c(-c3ccnc(NC(C)=O)c3)[nH]c3cccnc23)n1 [Example 2, N-{4-[3-(6-Methoxypyridin-2-yl)-1H-pyrrolo[3,2-b]pyridin-2-yl]pyridin-2-yl}acetamide] | 0.006 | 7.85
COc1ccc(-c2c(-c3ccnc(NC(C)=O)c3)[nH]c3cccnc23)nc1C [Example 237, N-(4-(3-(5-Methoxy-6-methylpyridin-2-yl)-1H-pyrrolo[3,2-b]pyridin-2-yl)pyridin-2-yl)acetamide] | 0.111 | > 15
CC(=O)Nc1cc(-c2[nH]c3cccnc3c2-c2cccc(C#N)n2)ccn1 [Example 15, N-{4-[3-(6-Cyanopyridin-2-yl)-1H-pyrrolo[3,2-b]pyridin-2-yl]pyridin-2-yl}acetamide] | 0.017 | 13.1
CC(=O)Nc1cc(-c2[nH]c3cc(Cl)cnc3c2-c2ncccc2C)ccn1 [Example 259, N-(4-(6-Chloro-3-(3-methylpyridin-2-yl)-1H-pyrrolo[3,2-b]pyridin-2-yl)pyridin-2-yl)acetamide] | 0.535 | > 15
CC(=O)Nc1cc(-c2[nH]c3c(N4CCCC4)ccnc3c2-c2cccc(C(F)F)n2)ccn1 [Example 156, N-(4-{3-[6-(Difluoromethyl)pyridin-2-yl]-7-(pyrrolidin-1-yl)-1H-pyrrolo[3,2-b]pyridin-2-yl}pyridin-2-yl)acetamide] | 0.188 | > 15
COc1ccc(-c2c(-c3ccnc(NC(C)=O)c3)[nH]c3c(C(=O)NC(CO)CO)ccnc23)cn1 [Example 59, N-(1,3-Dihydroxypropan-2-yl)-2-(2-acetamidopyridin-4-yl)-3-(6-methoxypyridin-3-yl)-1H-pyrrolo[3,2-b]pyridine-7-carboxamide] | 0.021 | 6.37
COc1ccc(-c2c(-c3ccnc(NC(C)=O)c3)[nH]c3cc(N4CCC[C@H]4CO)cnc23)nc1 [Example 162, (S)-N-(4-(6-(2-(Hydroxymethyl)pyrrolidin-1-yl)-3-(5-methoxypyridin-2-yl)-1H-pyrrolo[3,2-b]pyridin-2-yl)pyridin-2-yl)acetamide] | 0.0279 | > 15
COc1ccc(-c2c(-c3ccnc(NC(C)=O)c3)[nH]c3cc(N4CC[C@H](O)[C@@H](O)C4)cnc23)nc1 [Example 166, N-(4-(6-((3S,4S)-3,4-Dihydroxypiperidin-l-yl)-3-(5-methoxypyridin-2-yl)-1H-pyrrolo[3,2-b]pyridin-2-yl)pyridin-2-yl)acetamide] | 0.0132 | > 15
CC(=O)Nc1cc(-c2[nH]c3cccnc3c2-c2nc(C#N)cs2)ccn1 [Example 203, N-(4-(3-(4-Cyanothiazol-2-yl)-1H-pyrrolo[3,2-b]pyridin-2-yl)pyridin-2-yl)acetamide] | 0.774 | > 15
CC(=O)Nc1cc(-c2[nH]c3cccnc3c2-c2cccc3ccncc23)ccn1 [Example 19, N-{4-[3-(Isoquinolin-8-yl)-1H-pyrrolo[3,2-b]pyridin-2-yl]pyridin-2-yl}acetamide] | 0.023 | 0.19

These reach a lower IC50 (HIS-TGFβR1 T204D). Values come first.

IC50 (HIS-TGFβR1 T204D) [µM] | IC50 (HIS-TGFβR2 WT) [µM] | Structure (SMILES)
0.0029 | 0.147 | CC(=O)Nc1cc(-c2[nH]c3cccnc3c2-c2nccs2)ccn1 [Example 205, N-(4-(3-(Thiazol-2-yl)-1H-pyrrolo[3,2-b]pyridin-2-yl)pyridin-2-yl)acetamide]
0.001 | 0.484 | CC(=O)Nc1cc(-c2[nH]c3c(C(O)C(F)F)ccnc3c2-c2cccc(C(F)F)n2)ccn1 (centres unmarked) [Example 148, N-{4-[7-(2,2-Difluoro-1-hydroxyethyl)-3-[6-(difluoromethyl)pyridin-2-yl]-1H-pyrrolo[3,2-b]pyridin-2-yl]pyridin-2-yl}acetamide]
0.0008 | 0.043 | CC(=O)Nc1cc(-c2[nH]c3cc(C)cnc3c2-c2nc(C)cs2)ccn1 [Example 223, N-(4-(6-Methyl-3-(4-methylthiazol-2-yl)-1H-pyrrolo[3,2-b]pyridin-2-yl)pyridin-2-yl)acetamide]
0.0004 | 3.98 | CC(=O)Nc1cc(-c2[nH]c3cc(Cl)cnc3c2-c2nc(C(F)F)cs2)ccn1 [Example 172, N-(4-(6-Chloro-3-(4-(difluoromethyl)thiazol-2-yl)-1H-pyrrolo[3,2-b]pyridin-2-yl)pyridin-2-yl)acetamide]
0.0023 | 0.882 | CC(=O)Nc1cc(-c2[nH]c3cc(Cl)cnc3c2-c2ncc(C)s2)ccn1 [Example 169]
0.0007 | 0.548 | CC(=O)Nc1cc(-c2[nH]c3cccnc3c2-c2nc(C(F)F)cs2)ccn1 [Example 200, N-(4-(3-(4-(Difluoromethyl)thiazol-2-yl)-1H-pyrrolo[3,2-b]pyridin-2-yl)pyridin-2-yl)acetamide]
0.003 | > 15 | CCOc1ccnc2c(-c3cccc(C(F)F)n3)c(-c3ccnc(NC(C)=O)c3)[nH]c12 [Example 125, N-(4-{3-[6-(Difluoromethyl)pyridin-2-yl]-7-ethoxy-1H-pyrrolo[3,2-b]pyridin-2-yl}pyridin-2-yl)acetamide]
0.0005 | 0.037 | CC(=O)Nc1cc(-c2[nH]c3cc(Cl)cnc3c2-c2nc(C)cs2)ccn1 [Example 176, N-(4-(6-Chloro-3-(4-methylthiazol-2-yl)-1H-pyrrolo[3,2-b]pyridin-2-yl)pyridin-2-yl)acetamide]
0.0005 | 8.82 | CC(=O)Nc1cc(-c2[nH]c3c(C)ccnc3c2-c2nc(C(F)(F)F)cs2)ccn1 [Example 212, N-(4-(7-Methyl-3-(4-(trifluoromethyl)thiazol-2-yl)-1H-pyrrolo[3,2-b]pyridin-2-yl)pyridin-2-yl)acetamide]
0.0004 | > 15 | CC(=O)Nc1cc(-c2[nH]c3cc(Cl)cnc3c2-c2nc(C(F)(F)F)cs2)ccn1 [Example 175, N-(4-(6-Chloro-3-(4-(trifluoromethyl)thiazol-2-yl)-1H-pyrrolo[3,2-b]pyridin-2-yl)pyridin-2-yl)acetamide]
0.004 | > 15 | COc1ccc(-c2c(-c3ccnc(NC(C)=O)c3)[nH]c3cc(Cl)cnc23)nc1 [Example 47, N-{4-[6-Chloro-3-(5-methoxypyridin-2-yl)-1H-pyrrolo[3,2-b]pyridin-2-yl]pyridin-2-yl}acetamide]
0.002 | 0.794 | COc1ccc(-c2c(-c3ccnc(N)c3)[nH]c3cc(Cl)cnc23)cn1 [Example 289, 4-(6-Chloro-3-(6-methoxypyridin-3-yl)-1H-pyrrolo[3,2-b]pyridin-2-yl)pyridin-2-amine]
0.003 | 27.3 | CC(=O)Nc1cc(-c2[nH]c3c(CN(C)C)ccnc3c2-c2cccc(C(F)F)n2)ccn1 [Example 141, N-(4-{3-[6-(Difluoromethyl)pyridin-2-yl]-7-[(dimethylamino)methyl]-1H-pyrrolo[3,2-b]pyridin-2-yl}pyridin-2-yl)acetamide]
0.001 | 3.47 | CC(=O)Nc1cc(-c2[nH]c3c(CCO)ccnc3c2-c2cccc(C(F)F)n2)ccn1 [Example 155, N-(4-{3-[6-(Difluoromethyl)pyridin-2-yl]-7-(2-hydroxyethyl)-1H-pyrrolo[3,2-b]pyridin-2-yl}pyridin-2-yl)acetamide]
0.003 | 5.22 | COc1ccc(-c2c(-c3ccnc(NC(C)=O)c3)[nH]c3cc(OC)cnc23)nc1 [Example 284, N-(4-(6-Methoxy-3-(5-methoxypyridin-2-yl)-1H-pyrrolo[3,2-b]pyridin-2-yl)pyridin-2-yl)acetamide]
0.003 | 0.16 | COc1ccc(-c2c(-c3ccnc(NC(C)=O)c3)[nH]c3cc(C#N)cnc23)cn1 [Example 78, N-(4-(6-Cyano-3-(6-methoxypyridin-3-yl)-1H-pyrrolo[3,2-b]pyridin-2-yl)pyridin-2-yl)acetamide]
0.0014 | 10.9 | COc1cnc2c(-c3nc(C(F)(F)F)cs3)c(-c3ccnc(NC(C)=O)c3)[nH]c2c1 [Example 229, N-(4-(6-Methoxy-3-(4-(trifluoromethyl)thiazol-2-yl)-1H-pyrrolo[3,2-b]pyridin-2-yl)pyridin-2-yl)acetamide]
